Measurements published in patent publication US10189803B2, “Synthesis of therapeutic and diagnostic drugs centered on regioselective and stereoselective ring opening of aziridinium ions” (ILLINOIS INSTITUTE OF TECHNOLOGY, priority 2008, dated 2019).

Test system: HT29 cancer cells
Assay: Fluorescence imaging of cellular uptake in live HT29 cancer cells
Type: cell-based, Human
Conditions: 50 μM, 0.5 h incubation
Excerpt: In order to visualize cellular uptake using fluorescence imaging, C-NE3TA was conjugated with an organic fluorescent moiety, NBD to produce C-NE3TA-NBD (FIG. 40). Thus, the starting material 15 was reacted with NBD-Cl to provide the fluorescent conjugate 16. t-Butyl groups in Compound 16 were removed by treating 4M HCl in 1,4-dioxane. C-NE3TA has the respective excitation and emission wavelength of 446 nm and 512 nm. Fluorescence and phase contrast images of control HT29 cells or HT29 cells incubated with C-NE3TA-NBD (50 μM) were obtained using a confocal microscope with a band-pass filter set at 436/20 nm (excitation) and 535/30 nm (emission). […] It was noted that the control HT29 colon cancer cells also emit auto-fluorescence at the wavelength of excitation. While polyaminocarboxylate NE3TA is too hydrophilic to enter the cancer cells, C-NE3TA-NBD containing liphophilic moieties, both benzyl and NBD group is proposed to penetrate into the cells resulting in the punctuate present in the cancer cells.
Fluorescence Imaging of live cancer cells. HT29 cancer cells were plated in glass cover slips which placed in 6-well plates, and were incubated with growth media in a humidified atmosphere with 5% CO2 at 37° C. overnight. Control cells or cells containing C-NE3TA-NBD (50 μM, H2O) were incubated with media for 0.5 h under 5% CO2 at 37° C. […]
Fluorescence imaging of live cancer cells. […]

O=C(O)CNC(Cc1ccc(Nc2ccc([N+](=O)[O-])c3nonc23)cc1)CN1CCN(CC(=O)O)CCN(CC(=O)O)CC1 (stereo not shown) [C-NE3TA-NBD, (4-Carboxymethyl-7-{2-(carboxymethyl-amino)-3-[4-(7-nitro-benzo[1,2,5]oxadiazol-4-ylamino)-phenyl]-propyl}-[1,4,7]triazonan-1-yl)-acetic acid]
cellular uptake by fluorescence imaging (in words): does accumulate in the HT29 cancer cells
